# Laboratory results taken from patent US20240122899A1, “COMPOSITION FOR STIMULATING IMMUNE CELL METABOLISM” (SUNTORY HOLDINGS LIMITED, priority 2021, published 2024).
# Assays:
# [1] = test system: human peripheral blood mononuclear cells (PBMCs); test: Mitochondrial stress test / oxygen consumption rate (XFe96 flux analyzer) in human PBMCs; format: cell-based; conditions: final concentration of 10 μM, 30 μM, or 100 μM
# Procedure: The effect of the compound (L-ergothioneine) of the present invention on mitochondrial function was analyzed. Ergothioneine was added to human peripheral blood mononuclear cells (PBMCs) under the following conditions. The extracellular oxygen level and pH were measured in real time using an XFe96 flux analyzer (available from Agilent Technologies). XFe technology uses solid-state sensors to simultaneously measure both oxygen consumption rate (OCR) and extracellular acidification rate (ECAR) to determine effects on oxidative phosphorylation (OXPHOS) and glycolysis simultaneously. […] Then, the cells were sequentially exposed to various mitochondrial function inhibitors to evaluate cell metabolism. (Conditions for adding ergothioneine to human PBMCs) Human PBMCs were kept in an XF assay medium (XF RPMI1640 medium). Here, L-ergothioneine was adjusted to a final concentration of 0, 10, 30, or 100 μM. The cells (30,000 cells/50 μL/well) were seeded onto an XF96-well cell culture plate coated with PDL and were centrifuged at 200 g for one minute so that the cells were adhered to the plate. After culturing at 37° C. in the absence of CO2 for 20 minutes, the XF assay medium (130 μL) was added gently, followed by further culturing at 37° C. in the absence of CO2 for 40 minutes. The following mitochondrial stress test was performed on the obtained human PBMCs to which ergothioneine was added. An XF Mit Stress Kit (available from Agilent Technologies) was used for the experiment. […] The results obtained are shown in FIG. 1A (basal respiration), FIG. 1B (ATP production), and FIG. 1C (maximum respiration) to facilitate understanding of a possible mechanism of mitochondria metabolism. […] FIGS. 1A to 1C show the resulting values expressed as mean±standard deviation. A significance test was performed by Dunnett's test (test by multiple comparison assuming equal variance, p-value) using an Excel analysis tool to obtain test results relative to the final concentration (0 μM) of ergothioneine (*: p<0.05, **: p<0.01).
# [2] = mice orally administered, versus mice not administered; cited from earlier work
# [3] = test system: IL-6, IL-12, IL-1β, and IL-10; conditions: absence of the TLR ligand; ergothioneine concentration 0 or 10 mM; cited from earlier work
structure (smiles),measurement,setting,value
"C[N+](C)(C)[C@@H](Cc1c[nH]c(=S)[nH]1)C(=O)[O-] [ergothioneine, L-ergothioneine]",oxygen consumption rate (OCR) of human PBMCs over time,[1]; FIG. 2,increase
same,OCR related to basal respiration (mitochondrial basal respiration),"[1]; relative to 0 μM, FIG. 1A",significant increase
same,OCR related to ATP-related respiration (mitochondrial ATP production),"[1]; relative to 0 μM, FIG. 1B",significant increase
same,OCR related to maximum respiration (mitochondrial maximum respiration),"[1]; relative to 0 μM, FIG. 1C",significant increase
same,peritesticular fat weight,[2],lower
same,triglyceride (neutral fat) level in plasma,[2],lower
same,"detection of IL-6, IL-12, IL-1β, and IL-10",[3],"none of IL-6, IL-12, IL-1β, and IL-10 was detected"
